Test [1] addresses T1, SARS-CoV-2 PLpro (nsp3 1564–1878) (Severe acute respiratory syndrome coronavirus 2, UniProt P0DTD1). The test can be described thus: biochemical. Further details: FRET-quenched peptide (Pro3) cleavage by PLpro, 10 min pre-incubation, slope over 20 min, normalised to no-compound control. As to conditions: read-out: % of control remaining.
Test [2] deals with T1, SARS-CoV-2 PLpro (nsp3 1564–1878). The test can be described thus: biochemical. Further details: FRET-quenched peptide (Pro3) cleavage by PLpro, 10 min pre-incubation, slope over 20 min, normalised to no-compound control. As to conditions: read-out: % of control remaining. This is another data set of the same source.

Structures can show the parent of a compound that is named as a salt. Where two headings read alike, the source gives them in different places.

On to `COc1cc(C(=O)O[C@H]2C/C(C)=C/CC/C(C)=C/[C@H](O)[C@@H]2C(C)C)ccc1O` [Tschimganidin], for which the remaining activity at 1.25 µM in test [1] (Well no.=3207, low concentration screen) was found to be 89.2%. Moreover, in test [2] (Well no.=3207, high concentration screen), the remaining activity at 3.75 µM amounted to 100%.
As to `COc1cc(C(=O)O[C@H]2C[C@@H]3CC[C@]2(C)C3(C)C)ccc1O` [Tschimganine], in test [1] (Well no.=3209, low concentration screen), the remaining activity at 1.25 µM was found to be 104%. Also, the remaining activity at 3.75 µM in test [2] (Well no.=3209, high concentration screen) was determined as 104%.
In the case of `CN1CCc2c(c3ccccc3n2Cc2ccc(C(=O)NO)cc2)C1` [Tubastatin A HCl], in test [1] (Well no.=4962, low concentration screen), the remaining activity at 1.25 µM amounted to 90.5%. Also, the remaining activity at 3.75 µM in test [2] (Well no.=4962, high concentration screen) stood at 88.7%.
Consider `Nc1ncnc2c1ccn2[C@@H]1O[C@H](CO)[C@@H](O)[C@H]1O` [Tubercidin], for which the remaining activity at 1.25 µM in test [1] (Well no.=8060, low concentration screen) is 96.1%. For the same molecule, in test [2] (Well no.=8060, high concentration screen), the remaining activity at 3.75 µM came out at 95.7%.
As to `CCOc1ccc(-c2cn(C)nc2-c2cc(OC)c(OC)c(OC)c2)cc1` [Tubulin inhibitor 1], the remaining activity at 1.25 µM in test [1] (Well no.=7162, low concentration screen) stood at 104%. The remaining activity at 3.75 µM in test [2] (Well no.=7162, high concentration screen) was found to be 97.8%.
As for `CC(C)(C)NCC(O)c1ccccc1Cl` (stereo not shown) [Tulobuterol hydrochloride], the remaining activity at 1.25 µM in test [1] (Well no.=1291, low concentration screen) worked out at 105%. Moreover, the remaining activity at 3.75 µM in test [2] (Well no.=1291, high concentration screen) amounted to 106%.
Turning to `CC(C)(C)NCC(O)c1ccccc1Cl` (stereo not shown) [Tulobuterol], the remaining activity at 1.25 µM in test [1] (Well no.=2027, low concentration screen) is 98.5%. For the same molecule, the remaining activity at 3.75 µM in test [2] (Well no.=2027, high concentration screen) came out at 100%.
Consider `CC(=O)N[C@H]1[C@@H](O[C@@H]2O[C@H](C[C@@H](O)[C@@H]3O[C@H](n4ccc(=O)[nH]c4=O)[C@@H](O)[C@H]3O)[C@H](O)[C@H](O)[C@H]2NC(=O)/C=C/CCCCCCCCCCC(C)C)O[C@H](CO)[C@@H](O)[C@@H]1O` [Tunicamycin B], for which the remaining activity at 1.25 µM in test [1] (Well no.=3190, low concentration screen) was found to be 104%. For the same molecule, in test [2] (Well no.=3190, high concentration screen), the remaining activity at 3.75 µM was determined as 103%.
For `O=C(CO)[C@@H](O[C@H]1O[C@H](CO)[C@@H](O)[C@H](O)[C@H]1O)[C@H](O)[C@H](O)CO` [Turanose], the remaining activity at 1.25 µM in test [1] (Well no.=6971, low concentration screen) was 92.9%. Further, in test [2] (Well no.=6971, high concentration screen), the remaining activity at 3.75 µM amounted to 98.6%.
Consider `CC[C@H]1OC(=O)C[C@@H](O)[C@H](C)[C@@H](O[C@@H]2O[C@H](C)[C@@H](O[C@H]3C[C@@](C)(O)[C@@H](O)[C@H](C)O3)[C@H](N(C)C)[C@H]2O)[C@@H](CC=O)C[C@@H](C)C(=O)/C=C/C(C)=C/[C@@H]1CO[C@@H]1O[C@H](C)[C@@H](O)[C@@H](OC)[C@H]1OC` [Tylosin tartrate], for which, in test [1] (Well no.=4985, low concentration screen), the remaining activity at 1.25 µM amounted to 95.4%. Besides, the remaining activity at 3.75 µM in test [2] (Well no.=4985, high concentration screen) came out at 93%.
For `CC[C@H]1OC(=O)C[C@@H](O)[C@H](C)[C@@H](O[C@@H]2O[C@H](C)[C@@H](O[C@H]3C[C@@](C)(O)[C@@H](O)[C@H](C)O3)[C@H](N(C)C)[C@H]2O)[C@@H](CC=O)C[C@@H](C)C(=O)/C=C/C(C)=C/[C@@H]1CO[C@@H]1O[C@H](C)[C@@H](O)[C@@H](OC)[C@H]1OC` [Tylosin], the remaining activity at 1.25 µM in test [1] (Well no.=2010, low concentration screen) turned out to be 96.7%. In test [2] (Well no.=2010, high concentration screen), the remaining activity at 3.75 µM is 97.8%.
`CSCC[C@H](NC(=O)[C@H](Cc1ccccc1)NC(=O)CNC(=O)CNC(=O)[C@@H](N)Cc1ccc(O)cc1)C(=O)O` [Tyr-Gly-Gly-Phe-Met-OH]: the remaining activity at 1.25 µM in test [1] came to 98.2%. For the same molecule, in test [2], the remaining activity at 3.75 µM was found to be 101%.
In the case of `NCCc1ccc(O)cc1` [Tyramine], in test [1] (Well no.=6541, low concentration screen), the remaining activity at 1.25 µM turned out to be 107%. In addition, the remaining activity at 3.75 µM in test [2] (Well no.=6541, high concentration screen) came to 101%.
Regarding `N#CC(C#N)=Cc1ccc(O)c(O)c1` [Tyrphostin 23], in test [1] (Well no.=1341, low concentration screen), the remaining activity at 1.25 µM worked out at 94.2%. Further, in test [2] (Well no.=1341, high concentration screen), the remaining activity at 3.75 µM was 93.9%.
As to `N#CC(C#N)=Cc1cc(O)c(O)c(O)c1` [Tyrphostin 25], the remaining activity at 1.25 µM in test [1] (Well no.=1485, low concentration screen) was 90.9%. For the same molecule, the remaining activity at 3.75 µM in test [2] (Well no.=1485, high concentration screen) was determined as 86.6%.
As to `N#C/C(=C\c1ccc(O)c(O)c1)C(N)=S` [Tyrphostin 47], in test [1] (Well no.=1276, low concentration screen), the remaining activity at 1.25 µM stood at 97.8%. The remaining activity at 3.75 µM in test [2] (Well no.=1276, high concentration screen) is 99.6%.
Take `N#CC(C#N)=C(N)/C(C#N)=C/c1cc(O)c(O)c(O)c1` [Tyrphostin 51]: in test [1] (Well no.=1324, low concentration screen), the remaining activity at 1.25 µM came out at 96.8%. Besides, the remaining activity at 3.75 µM in test [2] (Well no.=1324, high concentration screen) is 95.8%.
Take `CC(C)(C)c1cc(C=C(C#N)C#N)cc(C(C)(C)C)c1O` [Tyrphostin A9]: in test [1] (Well no.=1426, low concentration screen), the remaining activity at 1.25 µM turned out to be 99.8%. The remaining activity at 3.75 µM in test [2] (Well no.=1426, high concentration screen) is 101%.
In the case of `COc1cc(C=C(C#N)C#N)cc(O)c1O` [Tyrphostin AG 34], in test [1] (Well no.=1387, low concentration screen), the remaining activity at 1.25 µM was determined as 102%. Moreover, the remaining activity at 3.75 µM in test [2] (Well no.=1387, high concentration screen) stood at 101%.
For the molecule `N#CC(C#N)=C(N)/C(C#N)=C/c1ccc(O)cc1` [Tyrphostin AG 112], the remaining activity at 1.25 µM in test [1] (Well no.=1245, low concentration screen) was 95.9%. For the same molecule, in test [2] (Well no.=1245, high concentration screen), the remaining activity at 3.75 µM worked out at 95.9%.
In the case of `N#CC(C#N)=Cc1ccc([N+](=O)[O-])c(O)c1` [Tyrphostin AG 126], the remaining activity at 1.25 µM in test [1] (Well no.=1518, low concentration screen) stood at 100%. For the same molecule, the remaining activity at 3.75 µM in test [2] (Well no.=1518, high concentration screen) was determined as 95.4%.
As to `N#C/C(=C\c1ccc(O)c(O)c1)C(=O)NCc1ccccc1` [Tyrphostin AG 490], the remaining activity at 1.25 µM in test [1] (Well no.=1381, low concentration screen) came out at 101%. Besides, the remaining activity at 3.75 µM in test [2] (Well no.=1381, high concentration screen) worked out at 102%.
Regarding `C[C@@H](NC(=O)/C(C#N)=C/c1ccc(O)c(O)c1)c1ccccc1` [Tyrphostin AG 527], the remaining activity at 1.25 µM in test [1] (Well no.=1431, low concentration screen) came out at 97.8%. Further, the remaining activity at 3.75 µM in test [2] (Well no.=1431, high concentration screen) came to 100%.
As to `N#C/C(=C\c1ccc(O)c(O)c1)C(=O)N1CCc2ccccc21` [Tyrphostin AG 528], the remaining activity at 1.25 µM in test [1] (Well no.=1193, low concentration screen) is 92.5%. Also, in test [2] (Well no.=1193, high concentration screen), the remaining activity at 3.75 µM was determined as 93.3%.
Take `N#C/C(=C\c1ccc(O)c(O)c1)C(=O)NCCCNC(=O)/C(C#N)=C/c1ccc(O)c(O)c1` [Tyrphostin AG 537]: in test [1] (Well no.=1289, low concentration screen), the remaining activity at 1.25 µM was 103%. For the same molecule, the remaining activity at 3.75 µM in test [2] (Well no.=1289, high concentration screen) turned out to be 99.7%.
For the molecule `N#C/C(=C\c1ccc(O)c(O)c1)C(=O)c1ccc(O)c(O)c1` [Tyrphostin AG 538], the remaining activity at 1.25 µM in test [1] (Well no.=1468, low concentration screen) stood at 93.5%. Besides, in test [2] (Well no.=1468, high concentration screen), the remaining activity at 3.75 µM turned out to be 92.4%.
On to `N#C/C(=C\c1ccc(O)c(O)c1)C(=O)NCCCc1ccccc1` [Tyrphostin AG 555], for which the remaining activity at 1.25 µM in test [1] (Well no.=1337, low concentration screen) amounted to 101%. Besides, the remaining activity at 3.75 µM in test [2] (Well no.=1337, high concentration screen) worked out at 98.7%.
In the case of `N#C/C(=C\c1c[nH]c2ccccc12)C(=O)c1ccc(O)c(O)c1` [Tyrphostin AG 808], the remaining activity at 1.25 µM in test [1] (Well no.=1433, low concentration screen) was found to be 98.9%. In test [2] (Well no.=1433, high concentration screen), the remaining activity at 3.75 µM stood at 97.2%.
For `CC(C)(C)c1cc(/C=C(\C#N)C(N)=S)cc(C(C)(C)C)c1O` [Tyrphostin AG 879], the remaining activity at 1.25 µM in test [1] (Well no.=1427, low concentration screen) is 95.8%. The remaining activity at 3.75 µM in test [2] (Well no.=1427, high concentration screen) was determined as 85.7%.
For the molecule `COc1cc2ncc(-c3ccccc3)nc2cc1OC` [Tyrphostin AG 1296], in test [1] (Well no.=1477, low concentration screen), the remaining activity at 1.25 µM is 97.5%. In test [2] (Well no.=1477, high concentration screen), the remaining activity at 3.75 µM stood at 97.9%.
Consider `COc1cc2ncnc(Nc3cccc(Cl)c3)c2cc1OC` [Tyrphostin AG 1478], for which the remaining activity at 1.25 µM in test [1] (Well no.=1191, low concentration screen) stood at 100%. Also, in test [2] (Well no.=1191, high concentration screen), the remaining activity at 3.75 µM is 100%.
For `CC(C)c1cc(/C=C(\C#N)C(=O)NCCCc2ccccc2)cc(C(C)C)c1O` [Tyrphostin SU 1498], the remaining activity at 1.25 µM in test [1] (Well no.=5970, low concentration screen) came out at 90%. Moreover, the remaining activity at 3.75 µM in test [2] (Well no.=5970, high concentration screen) was 89.5%.

The values above are taken from article PMC8286840, “Identifying SARS-CoV-2 antiviral compounds by screening for small molecule inhibitors of Nsp3 papain-like protease” (Biochemical Journal, 2021).
